Where “and” joins values, the source holds several entries; their conditions need not be identical. Equal values may be shown once. Inconclusive results and toxic doses are left out.

Here are results for 23 compounds from PubChem BioAssay AID330 (DTP/NCI, 2004).

The test system of the test is P388 leukemia ip, CD2F1 mice, survival T/C. The test can be described thus: NCI In Vivo Anticancer Drug Screen. Data for tumor model P388 Leukemia (intraperitoneal) in CD2F1 (CDF1) mice. To be noted: endpoint: median survival time, higher = longer survival. The method, boiled down:
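Mice carrying the transplanted tumor received test compound or vehicle. Survival was recorded in each group, and the value is the treated-group measurement divided by that of the vehicle-treated control group.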

The mark [1] stands for this setting: dose: 12.5 mg/kg/injection, schedule: Q01DX009 (ip), vehicle: distilled water + Tween-80.
Where [2] appears, read: dose: 25.0 mg/kg/injection, schedule: Q01DX009 (ip), vehicle: distilled water + Tween-80.
Setting [3] is: dose: 50.0 mg/kg/injection, schedule: Q01DX009 (ip), vehicle: distilled water + Tween-80.
Setting [4] is: dose: 100.0 mg/kg/injection, schedule: Q01DX009 (ip), vehicle: distilled water + Tween-80.
Where [5] appears, read: dose: 200.0 mg/kg/injection, schedule: Q01DX009 (ip), vehicle: distilled water + Tween-80.
Where [6] appears, read: dose: 50.0 mg/kg/injection, schedule: Q01DX009 (ip), vehicle: saline with Tween-80.
Setting [7] is: dose: 100.0 mg/kg/injection, schedule: Q01DX009 (ip), vehicle: saline with Tween-80.
Where [8] appears, read: dose: 200.0 mg/kg/injection, schedule: Q01DX009 (ip), vehicle: saline with Tween-80.
Where [9] appears, read: dose: 60.0 mg/kg/injection, schedule: Q01DX005 (ip), vehicle: saline with Tween-80.
Where [10] appears, read: dose: 120.0 mg/kg/injection, schedule: Q01DX005 (ip), vehicle: saline with Tween-80.
[11] abbreviates: dose: 240.0 mg/kg/injection, schedule: Q01DX005 (ip), vehicle: saline with Tween-80.
The mark [12] stands for this setting: dose: 100.0 mg/kg/injection, schedule: Q04DX003 (ip), vehicle: Klucel (hydroxypropylcellulose) (HPC).
[13] abbreviates: dose: 200.0 mg/kg/injection, schedule: Q04DX003 (ip), vehicle: Klucel (hydroxypropylcellulose) (HPC).
[14] abbreviates: dose: 400.0 mg/kg/injection, schedule: Q04DX003 (ip), vehicle: Klucel (hydroxypropylcellulose) (HPC).
Setting [15] is: dose: 400.0 mg/kg/injection, schedule: Q01DX009 (ip), vehicle: saline with Tween-80.
[16] abbreviates: dose: 50.0 mg/kg/injection, schedule: Q01DX009 (ip), vehicle: saline.
The mark [17] stands for this setting: dose: 100.0 mg/kg/injection, schedule: Q01DX009 (ip), vehicle: saline.
Where [18] appears, read: dose: 200.0 mg/kg/injection, schedule: Q01DX009 (ip), vehicle: saline.

With `O=C(Oc1ccc[nH]c1=O)c1cccc(C(F)(F)F)c1`, the T/C under setting [1] was 100 % of control; the T/C under setting [2] is 100 % of control; the T/C under setting [3] was 102 % of control; the T/C under setting [4] was 96 % of control; the T/C under setting [5] was 90 % of control.

Turning to `CCOC(=O)Cc1cc2cc(OCC)ncc2cc1C`, the T/C by setting is: (dose: 6.25 mg/kg/injection, schedule: Q01DX009 (ip), vehicle: distilled water + Tween-80) 91 % of control; under setting [1], 89 % of control; under setting [2], 103 % of control; under setting [3], 99 % of control; under setting [4], 94 % of control; under setting [5], 109 % of control. The T/C (dose: 400.0 mg/kg/injection, schedule: Q01DX009 (ip), vehicle: distilled water + Tween-80) was 102 % of control.

On to `CCCc1c(C)nc2scc(-c3ccccc3)n2c1=O`, for which the T/C under setting [6] is 105 % of control, the T/C under setting [7] is 99 % of control and the T/C under setting [8] was 99 % of control.

Regarding `CC(O)(c1ccccc1)C1C(c2ccccc2)N1Cc1ccccc1` (stereo not drawn), the T/C runs as follows: (dose: 50.0 mg/kg/injection, schedule: Q04DX003 (ip), vehicle: saline sonified) 100 % of control; (dose: 100.0 mg/kg/injection, schedule: Q04DX003 (ip), vehicle: saline sonified) 91 % of control.

For the compound `OC1CCCCC1C1CCCCC1O` (stereo not drawn), the T/C (dose: 100.0 mg/kg/injection, schedule: Q01DX001 (ip), vehicle: saline with Tween-80) is 105 % of control; the T/C (dose: 200.0 mg/kg/injection, schedule: Q01DX001 (ip), vehicle: saline with Tween-80) was 99 % of control; the T/C (dose: 400.0 mg/kg/injection, schedule: Q01DX001 (ip), vehicle: saline with Tween-80) is 104 % of control.

Regarding `CCOC(=O)c1c(C(=O)OC)nc2n1-c1ccccc1OC2`, the T/C runs as follows: (dose: 30.0 mg/kg/injection, schedule: Q01DX005 (ip), vehicle: saline with Tween-80) 97 % of control; under setting [9], 92 % of control and 94 % of control; under setting [10], 93 % of control; under setting [11], 93 % of control.

Take `Cc1cc(Cl)cc(S(=O)(=O)O)c1N`: the T/C was 95 % of control under setting [12], 97 % of control under setting [13] and 97 % of control under setting [14].

In the case of `O=S(=O)(SC(Cl)(Cl)Cl)c1ccc(Cl)cc1`, the T/C was 100 % of control (dose: 12.5 mg/kg/injection, schedule: Q01DX009 (ip), vehicle: saline sonified); 100 % of control (dose: 25.0 mg/kg/injection, schedule: Q01DX009 (ip), vehicle: saline sonified); 100 % of control (dose: 50.0 mg/kg/injection, schedule: Q01DX009 (ip), vehicle: saline sonified).

In the case of `C=C(C)C1CC=C(C)CC1` (stereo not drawn), the T/C under setting [7] was 95 % of control; the T/C (dose: 100.0 mg/kg/injection, schedule: Q04DX003 (ip), vehicle: saline with Tween-80) is 100 % of control; the T/C under setting [8] is 104 % of control; the T/C (dose: 200.0 mg/kg/injection, schedule: Q04DX003 (ip), vehicle: saline with Tween-80) is 104 % of control; the T/C under setting [15] was 114 % of control; the T/C (dose: 400.0 mg/kg/injection, schedule: Q04DX003 (ip), vehicle: saline with Tween-80) was 109 % of control.

Take `CCc1nc(N)nc(N)c1-c1ccc(NC2CCCCC2)c([N+](=O)[O-])c1`: the T/C under setting [9] is 101 % of control, the T/C under setting [10] was 95 % of control and the T/C under setting [11] was 94 % of control.

In the case of `CC(=O)NC(C(=O)O)C(C)SCc1ccccc1` (stereo not drawn), the T/C is 100 % of control under setting [6], 91 % of control under setting [7] and 97 % of control under setting [8].

On to `N#Cc1c(-c2ccc(F)cc2)c(-c2ccc(F)cc2)nn(CCO)c1=O`, for which the T/C is 98 % of control (dose: 12.5 mg/kg/injection, schedule: Q04DX002 (ip), vehicle: distilled water + Tween-80); 101 % of control and 108 % of control and 112 % of control (dose: 25.0 mg/kg/injection, schedule: Q04DX002 (ip), vehicle: distilled water + Tween-80); 117 % of control (dose: 50.0 mg/kg/injection, schedule: Q01DX005 (ip), vehicle: distilled water + Tween-80); 121 % of control and 166 % of control and 201 % of control (dose: 100.0 mg/kg/injection, schedule: Q04DX002 (ip), vehicle: distilled water + Tween-80); 155 % of control (dose: 200.0 mg/kg/injection, schedule: Q01DX005 (ip), vehicle: distilled water + Tween-80); 150 % of control (dose: 200.0 mg/kg/injection, schedule: Q04DX002 (ip), vehicle: distilled water + Tween-80). The T/C (dose: 400.0 mg/kg/injection, schedule: Q01DX005 (ip), vehicle: distilled water + Tween-80) is 238 % of control.

Regarding `CC(C)(C)C(=O)Oc1ccc([N+](=O)[O-])cc1`, the T/C by setting is: (dose: 100.0 mg/kg/injection, schedule: Q04DX002 (ip), vehicle: saline with Tween-80) 106 % of control; (dose: 200.0 mg/kg/injection, schedule: Q04DX002 (ip), vehicle: saline with Tween-80) 122 % of control; (dose: 400.0 mg/kg/injection, schedule: Q04DX002 (ip), vehicle: saline with Tween-80) 102 % of control.

As for `CCN(CC)c1ccc2cc(S(=O)(=O)c3ccccc3)c(=O)oc2c1`, the T/C under setting [9] is 91 % of control and the T/C under setting [10] is 86 % of control.

In the case of `CC(C)c1ccc(OC(=O)Nc2c(Cl)cccc2Cl)cc1`, the T/C under setting [9] was 108 % of control, the T/C under setting [10] is 120 % of control and the T/C under setting [11] was 115 % of control.

On to `NC1C(N)C(N)C1N` (stereo not drawn), for which the T/C runs as follows: (dose: 12.5 mg/kg/injection, schedule: Q01DX005 (ip), vehicle: water) 102 % of control; (dose: 25.0 mg/kg/injection, schedule: Q01DX005 (ip), vehicle: water) 102 % of control; (dose: 50.0 mg/kg/injection, schedule: Q01DX005 (ip), vehicle: water) 102 % of control; (dose: 100.0 mg/kg/injection, schedule: Q01DX005 (ip), vehicle: water) 98 % of control; (dose: 200.0 mg/kg/injection, schedule: Q01DX005 (ip), vehicle: water) 94 % of control.

On to `CC(C)COC(CN(C)C)C(Cl)(Cl)Cl` (stereo not drawn), for which the T/C is, setting by setting: under setting [16], 107 % of control; under setting [17], 100 % of control; under setting [18], 116 % of control.

Regarding `COc1ccc2c(c1)S(=O)(=O)C(c1ccccc1)=CC2=O`, the T/C runs as follows: (dose: 50.0 mg/kg/injection, schedule: Q01DX005 (ip), vehicle: Klucel (hydroxypropylcellulose) (HPC)) 114 % of control; (dose: 100.0 mg/kg/injection, schedule: Q01DX005 (ip), vehicle: Klucel (hydroxypropylcellulose) (HPC)) 115 % of control; (dose: 200.0 mg/kg/injection, schedule: Q01DX005 (ip), vehicle: Klucel (hydroxypropylcellulose) (HPC)) 123 % of control.

Turning to `CC(=O)OC1CCC2(C)C(=CCC3C4CC(C5(O)C(=O)Nc6ccccc65)C(=O)C4(C)CCC32)C1` (stereo not drawn), the T/C (dose: 25.0 mg/kg/injection, schedule: Q01DX009 (ip), vehicle: saline with Tween-80) is 102 % of control; the T/C under setting [6] is 93 % of control; the T/C under setting [7] is 94 % of control.

Turning to `C=C(C#N)CSc1c(Cl)c(Cl)c(Cl)c(Cl)c1Cl`, the T/C is 88 % of control (dose: 25.0 mg/kg/injection, schedule: Q04DX003 (ip), vehicle: Klucel (hydroxypropylcellulose) (HPC)); 91 % of control (dose: 50.0 mg/kg/injection, schedule: Q04DX003 (ip), vehicle: Klucel (hydroxypropylcellulose) (HPC)); 93 % of control and 95 % of control under setting [12]; 100 % of control and 103 % of control under setting [13]; 105 % of control under setting [14].

With `CCOP(=O)(NNP(=O)(OCC)OCC)OCC`, the T/C reads like this: under setting [16], 106 % of control; under setting [17], 103 % of control; under setting [18], 104 % of control.

For `CCOC(=O)C1=C(C)N(Cc2ccccc2)C(C)=C(C(=O)OCC)C1(C)C`, the T/C is, setting by setting: under setting [7], 104 % of control; under setting [8], 118 % of control; under setting [15], 118 % of control.

As for `CCOC(=O)c1sc(N)c(C(=O)OCC)c1C`, under setting [7], the T/C was 86 % of control.
